According to ChEMBL document CHEMBL3885861, “Open TG-GATES”:

Organism: Rattus norvegicus
Assay: Open TG-GATES - Regimen: Daily Repeat
Format: toxicity, organism-based, Sprague-Dawley
Parameters: regimen Daily Repeat, gender Male, age 6 weeks
Conditions: in vivo, po, route gavage; for TG / TP / gamma-GTP / ALP / ALT / CRE / DBIL / GLC / IP / K / LDH / Na / PL / RALB / TBIL / TC / BUN: tissue Plasma
[1] = 60 mg/kg, […], dose level Low, time 28 day
[2] = 200 mg/kg, 72 h, dose level Middle, time 3 day
[3] = 200 mg/kg, 72 h, tissue Blood, dose level Middle, time 3 day
[4] = 200 mg/kg, […], dose level Middle, time 7 day
[5] = 200 mg/kg, […], dose level Middle, time 14 day
[6] = 200 mg/kg, […], dose level Middle, time 28 day
[7] = 200 mg/kg, […], tissue Blood, dose level Middle, time 7 day
[8] = 200 mg/kg, […], tissue Blood, dose level Middle, time 14 day
[9] = 200 mg/kg, […], tissue Blood, dose level Middle, time 28 day
[10] = 600 mg/kg, 72 h, dose level High, time 3 day
[11] = 600 mg/kg, 72 h, tissue Blood, dose level High, time 3 day
[12] = 600 mg/kg, […], dose level High, time 7 day
[13] = 600 mg/kg, […], dose level High, time 14 day
[14] = 600 mg/kg, […], dose level High, time 28 day
[15] = 600 mg/kg, […], tissue Blood, dose level High, time 7 day
[16] = 600 mg/kg, […], tissue Blood, dose level High, time 14 day
[17] = 600 mg/kg, […], tissue Blood, dose level High, time 28 day

Structure (SMILES): CCN(CC)C(=S)SSC(=S)N(CC)CC
- TG [1]: 67.8 mg/dL
- TP [1]: 5.9 g/dL
- gamma-GTP [1]: 1.8 IU/L
- TERMINAL_BW [2]: 218.6 g
- APTT [3]: 22.4 s
- Bas [3]: 0%
- Eos [3]: 1%
- Fbg [3]: 344.8 mg/dL
- Hb [3]: 12.4 g/dL
- Ht [3]: 37.6%
- MCH [3]: 19.7 pg
- MCHC [3]: 32.9%
- MCV [3]: 60 fL
- Mono [3]: 2.2%
- PT [3]: 15.7 s
- Plat [3]: 109.9 x10_4/uL
- RBC [3]: 627.2 x10_4/ul
- Ret [3]: 4.6%
- WBC [3]: 80.4 x10_2/uL
- ALP [2]: 878 IU/L
- ALT [2]: 45 IU/L
- CRE [2]: 0.2 mg/dL
- DBIL [2]: 0.008 mg/dL
- GLC [2]: 170.6 mg/dL
- IP [2]: 7 mg/dL
- K [2]: 4.1 meq/L
- LDH [2]: 195.4 IU/L
- Na [2]: 144 meq/L
- PL [2]: 189.4 mg/dL
- RALB [2]: 3.1 g/dL
- TBIL [2]: 0.014 mg/dL
- TC [2]: 117.8 mg/dL
- TG [2]: 54.8 mg/dL
- TP [2]: 5.6 g/dL
- gamma-GTP [2]: 1.2 IU/L
- TERMINAL_BW [4]: 250.3 g
- TERMINAL_BW [5]: 290.7 g
- TERMINAL_BW [6]: 357.8 g
- APTT [7]: 20.7 s
- Bas [7]: 0%
- Eos [7]: 1%
- Fbg [7]: 349.8 mg/dL
- Hb [7]: 12.3 g/dL
- Ht [7]: 37.8%
- MCH [7]: 20.2 pg
- MCHC [7]: 32.7%
- MCV [7]: 61.8 fL
- Mono [7]: 2.4%
- PT [7]: 16.3 s
- Plat [7]: 130.6 x10_4/uL
- RBC [7]: 611 x10_4/ul
- Ret [7]: 7.1%
- WBC [7]: 101.3 x10_2/uL
- APTT [8]: 23.3 s
- Bas [8]: 0%
- Eos [8]: 1%
- Fbg [8]: 348.6 mg/dL
- Hb [8]: 13.6 g/dL
- Ht [8]: 39.4%
- MCH [8]: 20 pg
- MCHC [8]: 34.5%
- MCV [8]: 58 fL
- Mono [8]: 2.4%
- PT [8]: 16.1 s
- RBC [8]: 679.6 x10_4/ul
- Ret [8]: 5.2%
- WBC [8]: 99.9 x10_2/uL
- APTT [9]: 24.5 s
- Bas [9]: 0%
- Eos [9]: 1.4%
- Fbg [9]: 385.6 mg/dL
- Hb [9]: 14.2 g/dL
- Ht [9]: 40.9%
- MCH [9]: 19 pg
- MCHC [9]: 34.8%
- MCV [9]: 54.7 fL
- Mono [9]: 2%
- Neu [9]: 16%
- PT [9]: 16.3 s
- Plat [9]: 100.5 x10_4/uL
- RBC [9]: 748.8 x10_4/ul
- Ret [9]: 4%
- WBC [9]: 118.2 x10_2/uL
- ALP [4]: 989.4 IU/L
- ALT [4]: 46 IU/L
- BUN [4]: 18.2 mg/dL
- CRE [4]: 0.2 mg/dL
- DBIL [4]: 0 mg/dL
- GLC [4]: 173.2 mg/dL
- IP [4]: 6.6 mg/dL
- K [4]: 4.3 meq/L
- LDH [4]: 195 IU/L
- Na [4]: 143 meq/L
- PL [4]: 171 mg/dL
- RALB [4]: 3.1 g/dL
- TBIL [4]: 0.006 mg/dL
- TG [4]: 38.2 mg/dL
- TP [4]: 5.8 g/dL
- gamma-GTP [4]: 1.6 IU/L
- ALP [5]: 989.6 IU/L
- ALT [5]: 38.8 IU/L
- BUN [5]: 22.2 mg/dL
- CRE [5]: 0.2 mg/dL
- DBIL [5]: 0 mg/dL
- GLC [5]: 172.6 mg/dL
- IP [5]: 6.4 mg/dL
- K [5]: 4.2 meq/L
- LDH [5]: 126.6 IU/L
- Na [5]: 142 meq/L
- PL [5]: 181 mg/dL
- RALB [5]: 3.2 g/dL
- TBIL [5]: 0.014 mg/dL
- TC [5]: 104 mg/dL
- TG [5]: 41.2 mg/dL
- TP [5]: 6 g/dL
- gamma-GTP [5]: 3 IU/L
- ALP [6]: 809.6 IU/L
- ALT [6]: 37.2 IU/L
- BUN [6]: 21.2 mg/dL
- CRE [6]: 0.2 mg/dL
- DBIL [6]: 0 mg/dL
- GLC [6]: 165.8 mg/dL
- IP [6]: 6 mg/dL
- K [6]: 4 meq/L
- LDH [6]: 132 IU/L
- Na [6]: 142 meq/L
- PL [6]: 188 mg/dL
- RALB [6]: 3.3 g/dL
- TBIL [6]: 0.026 mg/dL
- TC [6]: 118 mg/dL
- TG [6]: 38 mg/dL
- TP [6]: 6.4 g/dL
- gamma-GTP [6]: 2.4 IU/L
- TERMINAL_BW [10]: 211.3 g
- APTT [11]: 23.3 s
- Bas [11]: 0%
- Eos [11]: 0.6%
- Fbg [11]: 405.6 mg/dL
- Hb [11]: 12.6 g/dL
- Ht [11]: 37.8%
- MCH [11]: 20.2 pg
- MCHC [11]: 33.3%
- MCV [11]: 60.9 fL
- Mono [11]: 2.4%
- PT [11]: 15.5 s
- Plat [11]: 118.3 x10_4/uL
- RBC [11]: 623 x10_4/ul
- Ret [11]: 4.4%
- WBC [11]: 61.8 x10_2/uL
- ALP [10]: 963 IU/L
- ALT [10]: 47.6 IU/L
- CRE [10]: 0.1 mg/dL
- DBIL [10]: 0.02 mg/dL
- GLC [10]: 162 mg/dL
- IP [10]: 7.7 mg/dL
- K [10]: 3.7 meq/L
- LDH [10]: 341.6 IU/L
- Na [10]: 144 meq/L
- PL [10]: 212.8 mg/dL
- RALB [10]: 3 g/dL
- TBIL [10]: 0.018 mg/dL
- TC [10]: 147.4 mg/dL
- TG [10]: 29.4 mg/dL
- TP [10]: 5.8 g/dL
- gamma-GTP [10]: 1.4 IU/L
- TERMINAL_BW [12]: 217.6 g
- TERMINAL_BW [13]: 270 g
- TERMINAL_BW [14]: 304.2 g
- APTT [15]: 25.8 s
- Bas [15]: 0%
- Eos [15]: 0.5%
- Fbg [15]: 408.2 mg/dL
- Hb [15]: 13.4 g/dL
- Ht [15]: 40%
- Lym [15]: 64.8%
- MCH [15]: 19.7 pg
- MCHC [15]: 33.5%
- MCV [15]: 58.8 fL
- Mono [15]: 5%
- Neu [15]: 28.8%
- PT [15]: 18.8 s
- Plat [15]: 130.8 x10_4/uL
- RBC [15]: 681.5 x10_4/ul
- Ret [15]: 4.8%
- WBC [15]: 88.4 x10_2/uL
- APTT [16]: 22.8 s
- Bas [16]: 0%
- Eos [16]: 1%
- Fbg [16]: 377.4 mg/dL
- Hb [16]: 13.4 g/dL
- Ht [16]: 38.3%
- MCH [16]: 19.6 pg
- MCHC [16]: 35%
- MCV [16]: 55.9 fL
- Mono [16]: 2.4%
- Neu [16]: 22.6%
- PT [16]: 16.8 s
- RBC [16]: 683.8 x10_4/ul
- Ret [16]: 5.7%
- WBC [16]: 85.1 x10_2/uL
- APTT [17]: 20.8 s
- Bas [17]: 0%
- Eos [17]: 1%
- Fbg [17]: 382.2 mg/dL
- Hb [17]: 13.4 g/dL
- Ht [17]: 38.9%
- MCH [17]: 18.9 pg
- MCHC [17]: 34.5%
- MCV [17]: 54.9 fL
- Mono [17]: 2.6%
- Neu [17]: 17.8%
- PT [17]: 17.4 s
- Plat [17]: 99.3 x10_4/uL
- RBC [17]: 708.2 x10_4/ul
- Ret [17]: 4.8%
- WBC [17]: 98.6 x10_2/uL
- ALP [12]: 563.5 IU/L
- ALT [12]: 41.8 IU/L
- BUN [12]: 17.5 mg/dL
- CRE [12]: 0.2 mg/dL
- DBIL [12]: 0.0275 mg/dL
- GLC [12]: 147.5 mg/dL
- IP [12]: 7.2 mg/dL
- K [12]: 4.3 meq/L
- LDH [12]: 354.2 IU/L
- Na [12]: 145.2 meq/L
- PL [12]: 201 mg/dL
- RALB [12]: 2.9 g/dL
- TBIL [12]: 0.025 mg/dL
- TG [12]: 16.5 mg/dL
- TP [12]: 5.8 g/dL
- gamma-GTP [12]: 2.5 IU/L
- ALP [13]: 1017.2 IU/L
- ALT [13]: 34 IU/L
- BUN [13]: 21 mg/dL
- CRE [13]: 0.2 mg/dL
- DBIL [13]: 0.004 mg/dL
- GLC [13]: 161.2 mg/dL
- IP [13]: 6.9 mg/dL
- K [13]: 4.1 meq/L
- LDH [13]: 173.8 IU/L
- Na [13]: 142.8 meq/L
- PL [13]: 178.8 mg/dL
- RALB [13]: 3.3 g/dL
- TBIL [13]: 0.024 mg/dL
- TC [13]: 109.4 mg/dL
- TG [13]: 29.2 mg/dL
- TP [13]: 6.2 g/dL
- gamma-GTP [13]: 2.8 IU/L
- ALP [14]: 651.8 IU/L
- ALT [14]: 34.2 IU/L
- BUN [14]: 19.6 mg/dL
- CRE [14]: 0.2 mg/dL
- DBIL [14]: 0.014 mg/dL
- GLC [14]: 156.8 mg/dL
- IP [14]: 6.1 mg/dL
- K [14]: 3.8 meq/L
- LDH [14]: 159.2 IU/L
- Na [14]: 143 meq/L
- PL [14]: 166.6 mg/dL
- RALB [14]: 3.2 g/dL
- TBIL [14]: 0.044 mg/dL
- TC [14]: 112.4 mg/dL
- TG [14]: 16.2 mg/dL
- TP [14]: 6.4 g/dL
- gamma-GTP [14]: 2.8 IU/L
